This experiment concerns the target Sigma non-opioid intracellular receptor 1 (Cavia porcellus, UniProt Q60492). The experiment in a line: Displacement of [3H](+)-pentazocine from sigma 1 receptor in guinea pig brain membrane. In general terms: Displacement assays read how much labelled ligand stays bound in the presence of the test substance.

Chain of Sigma non-opioid intracellular receptor 1 (Q60492 whole entry): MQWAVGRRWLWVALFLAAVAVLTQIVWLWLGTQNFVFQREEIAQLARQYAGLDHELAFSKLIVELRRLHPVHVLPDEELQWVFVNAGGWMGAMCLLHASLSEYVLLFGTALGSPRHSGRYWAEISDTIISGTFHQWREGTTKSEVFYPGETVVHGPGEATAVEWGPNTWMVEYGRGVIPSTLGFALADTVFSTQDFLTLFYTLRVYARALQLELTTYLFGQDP

Turning to `OCC[C@H]1Cc2ccccc2C2(CCN(CCCc3ccccc3)CC2)O1` [(R)-2-(1'-(3-phenylpropyl)spiro[isochroman-1,4'-piperidine]-3-yl)ethanol], the Ki is 0.068 µM. The result for `OCC[C@H]1Cc2ccccc2C2(CCN(CC3CCCCC3)CC2)O1` [(R)-2-(1'-(cyclohexylmethyl)spiro[isochroman-1,4'-piperidine]-3-yl)ethanol] reads 0.009 µM; that for `OCC[C@H]1Cc2ccccc2C2(CCN(Cc3ccccc3)CC2)O1` [(R)-2-(1'-benzylspiro[isochroman-1,4'-piperidine]-3-yl)ethanol], 0.048 µM. Under `OCC[C@@H]1Cc2ccccc2C2(CCN(Cc3ccccc3)CC2)O1` [(S)-2-(1'-benzylspiro[isochroman-1,4'-piperidine]-3-yl)ethanol] stands 0.01 µM.

As usually defined, the Ki is a dissociation constant, usually derived from enzyme kinetics or from competition with a known ligand. Read a high Ki as a looser hold on the target.

These data come from BindingDB's records for doi:10.1016/j.ejmech.2010.03.048 (2010).
